Measured values published in patent US9492470B2, “Use of HMGA-targeted phosphorothioate DNA aptamers to suppress carcinogenic activity and increase sensitivity to chemotherapy agents in human cancer cells” (MIAMI UNIVERSITY, priority 2012, dated 2016).
In the oligonucleotide strings, read from the 5' end, every base follows the letter of its sugar. An asterisk marks phosphorothioate; unmarked linkages are phosphodiester. Other units and linkages are bracketed, terminal groups are in braces. A string of capitals states the bases alone. d = 2'-deoxy (DNA)

What was measured:
HMGA1 = target: T1, HMGA1 (Homo sapiens, UniProt P17096); assay: Electrophoretic mobility shift assay (EMSA), HMGA1 competitive binding against ATf10 DNA; conditions: for formation of HMGA/ATf10 DNA complex in presence of competitor DNA: equal amounts of ATf10 and CG10 or Mix10, ATf10 DNA:HMGA1 1:1
T1 construct: The cDNA for full length HMGA1b was cloned into pET-30b; made in house; host or cells: Escherichia coli BL21 (DE3)
T1 sequence (P17096 1-96 isoform P17096-2): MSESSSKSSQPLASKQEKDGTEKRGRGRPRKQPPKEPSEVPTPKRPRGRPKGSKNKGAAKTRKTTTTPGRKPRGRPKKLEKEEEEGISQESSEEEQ
Procedure: The cDNA for full length HMGA1b was cloned into pET-30b and overexpressed in Eschericia coli (E. Coli) BL21 (DE3). E. coli expressing HMGA1b was cultured at 37° C. to an OD600 measurement of 0.8 to 1.0 OD600. Protein expression was induced by the addition of 1 mM IPTG and shaking at 37° C. for 4-6 hours. HMGA1 was purified by trichloroacetic acid precipitation as described in R. Reeves, HMGA proteins: isolation, biochemical modifications, and nucleosome interactions. Methods in enzymology 375 (2004) 297-322, the disclosure of which is incorporated herein by reference. Overexpressed HMGA1b was further purified with a Sephadex G-25 column in H2O and lyophilized using a standard freezedrying procedure. The samples were resolublized in a 25 mM Tris-HCl (pH 6.5), 50 mM NaCl buffer for analysis.
The following 28-mer oligonucleotides were purchased from Integrated DNA Technologies (Coralville, Iowa, USA): ATf10 5′-(56FAM)-[…]-3′ (SEQ ID NO: 4), and ATs10 5′-GGGT*T*T*T*T*T*T*T*T*T*[…]-3′ (SEQ ID NO: 5) (the “*” indicates the location of phosphorothioate linkage). ATf10 contained a fluorescence tag to serve as a marker for later analysis. […] AT10f was annealed with its complementary strand without a fluorescence tag, and ATs10 was annealed with a strand with no sulfur substitution. […]
The HMGA protein samples were prepared in 25 mM Tris-HCl (pH 6.5), 50 mM NaCl, and the concentrations determined based on UV […] absorbance (ε=38,200 mol-1 cm-1). […] The DNA was detected at 495 nm using the VersaDoc™ Imaging System Model 3000 from BIO-RAD Laboratories, Inc. of Hercules, Calif. […]
In order to determine if HMGA1 DNA binding activity was affected by sulfur substitution in the DNA phosphodiester backbone, fluorescence labeled DNA (ATf10 DNA) was used in competitive binding assays against various sulfur substituted DNAs where different ratios of ATf10 DNA and ATs10 DNA were added to a constant amount of purified HMGA1 (FIG. 1A). […]
Since ATs10 DNA has no fluorescence label, no signal could be detected when only ATs10DNA was added to HMGA1 (FIG. 1A, lane 9). […]

[1] = cited from earlier work

**Q.** Which “ATf10 DNA detected in the unshifted position” value (HMGA1; 1:1 ratio of ATf10 DNA to ATs10 DNA, ATf10 DNA to HMGA1 1:1.5 (FIG. 1A, lane 4)) does the source give for “ATs10: 28-mer oligonucleotide with phosphorothioate linkages in the T tract (SEQ ID NO: 5) (DNA dGdGdGdT*dT*dT*dT*dT*dT*dT*dT*dT*dT*dCdGdCdGdGdCdGdGdCdCdCdCdGdCdG; annealed with complementary strand)” here?
**A.** approximately half

**Q.** For “Mix10: negative control DNA, random sequence of A, T, C, G with no AT-stretch (SEQ ID NO: 7) (DNA GGGCGTGACTGAGCGCGGCGGCCCCGCG; DNA, all phosphodiester, methylation of C not given here)”, which “formation of HMGA/ATf10 DNA complex in presence of competitor DNA” value (HMGA1) is on record?
**A.** still observed

**Q.** Which “formation of HMGA/ATf10 DNA complex in presence of competitor DNA” value (HMGA1) does the source give for “CG10: negative control DNA containing only a mixture of C and G (SEQ ID NO: 6) (DNA GGGCCCCCCCCCCCGCGGCGGCCCCGCG; DNA, all phosphodiester, methylation of C not given here)” here?
**A.** still observed

**Q.** With `NC(=O)OC[C@H]1c2c(O)cc(C=O)cc2N2CC3N[C@@H]3[C@]1(O)O2` (stereo partly shown) [FR900482] as the molecule, how does the toxicity in humans [1] read?
**A.** high toxicity
